# Test results published in patent publication US20030044413A1, “Methods of limiting apoptosis of cells” (Regents of the University of Minnesota, priority 1998, published 2003).
# Legend:
# HuH-7 cells = test: FACS analysis of ΔΨm and ROS, HuH-7 cells; assay type: cell-based, human
# Procedure: A ΔΨm and ROS measurement. ΔΨm and ROS production were measured by FACScan (Becton Dickinson) analysis. Freshly isolated rat hepatocytes were cultured for 3 h as described above and then incubated with William's E medium supplemented with either 100 μM DCA, 100 μM UDCA, equal molar amounts of both, or no bile acid (control), for 6 h. Rat hepatocytes were also cultured with either 1% ethanol, 100 μM UDCA, ethanol+UDCA, or no addition (control) for 4 h. HuH-7 cells, Hep G2 cells, and human osteogenic sarcoma Saos-2 cells were incubated with TGF-β1, anti-Fas antibody or okadaic acid, respectively, for 48 h under the same conditions as outlined above. For combination studies, cells were pretreated with UDCA or hyodeoxycholic acid for 60 min prior to addition of DCA, ethanol, TGF-β1, anti-Fas antibody or okadaic acid. Aliquots of 1.0×10^6 cells were incubated for 15 min at 37° C. with 50 nM 3,3′-dihexyloxacarbocyanine iodide [DiOC6(3)], 2 μM dihydroethidium (HE), or 5 μM 2′,7′-dichlorofluorescin diacetate (H2DCFDA; Molecular Probes, Inc. Eugene, Oreg.) and analyzed by cytofluorometry (Cathcart et al., Anal. Biochem., 134, 111-116 (1983); Zamzami et al., J. Exp. Med., 181, 1661-1672 (1 995); Carter et al., J. Leukocyte Biol., 55, 253-258 (1994)).
# Rat primary hepatocytes were incubated with 100 μM DCA and 1% ETOH for 6 h and 4 h, respectively; HuH-7 cells with 1 nM TGF-β1 for 48 h; Hep G2 cells with 0.5 μg/ml anti-Fas antibody (CH-11) for 48 h, and Saos-2 cells with 50 nM okadaic acid (OA) for 48 h. In each combination group, cells were pretreated with 100 μM UDCA alone for 60 min prior to addition of the inducer. Aliquots of 1.0×10^6 cells were incubated for 15 min at 37° C. with 5 μM 2′,7′-dichlorofluorescin diacetate (H2DCFDA) and analyzed by cytofluorometry.
# Saos-2 cells = test: Okadaic acid-induced apoptosis, Saos-2 cells; assay type: cell-based, human
# Procedure: Incubation of cells with ethanol, TGF-β1, anti-Fas antibody or okadaic acid. Freshly isolated rat hepatocytes were cultured for 3 h as described above and then incubated with William's E medium supplemented with either 0.5% ethanol, 50 μM UDCA, ethanol plus UDCA, or no addition (control) for 2 h and 4 h. HuH-7 cells were incubated with Dulbecco's medium supplemented with either 1 nM TGF-β1 (R & D Systems, Minneapolis, Minn.), 100 μM UDCA, TGF-β1+UDCA, or no addition (control) for 24 h, 48 h, and 72 h. Hep G2 cells were incubated with Dulbecco's medium supplemented with either 0.5 μg/ml of anti-Fas antibody CH-11 (Upstate Biotechnology, Inc., Lake Placid, N.Y.), 100 μM UDCA, CH-11+UDCA, or no addition for 48 h. Both HuH-7 cells and human osteogenic sarcoma Saos-2 cells were cultured in Dulbecco's medium supplemented with either 50 nM okadaic acid (Boehringer Mannheim Biochemicals, Inc, Indianapolis, Ind.), 100 μM UDCA, okadaic acid+UDCA, or no addition for 48 h. In all the combination groups, cells were pretreated with UDCA alone for 60 min prior to addition of ethanol, TGF-β1, anti-Fas antibody or okadaic acid.
# Morphological evaluation of apoptosis. Morphology was performed as described previously (Oberhammer et al., Proc. Natl. Acad. Sci. USA 89, 5408-5412 (1992)). Briefly, after fixation (with 4% formaldehyde in PBS, pH 7.4, for 10 min at room temperature), the cells were incubated with Hoechst dye 33258 (Sigma Chemical Co.) at 5 μg/ml in PBS for 5 min, washed with PBS and mounted with PBS:glycerol (3:1, v/v). Fluorescence was visualized with a Zeiss standard fluorescence microscope (Carl Zeiss, Inc., Thornwood, N.Y.). Photographs were taken with Kodak Ektar-1000 film (Eastman Kodak Co.). Stained nuclei were scored by blind analysis and categorized according to the condensation and staining characteristics of chromatin. Normal nuclei were identified as noncondensed chromatin dispersed over the entire nucleus. […] Three fields per dish of approximately 500 nuclei were counted; mean values are expressed as the percent of apoptotic nuclei.
# primary rat hepatocytes = test: DCA-induced apoptosis, Hoechst staining, primary rat hepatocytes; assay type: cell-based
# Description: Cell culture and preparation of rat primary hepatocytes. Rat primary hepatocytes were isolated from male Sprague-Dawley rats (200-250 g) by collagenase perfusion as described previously (Mariash et al., J. Biol. Chem, 261, 9583-9586 (1986)). Briefly, rats were aneshtesized with phenobarbitol and the livers were perfused with 0.05% collagenase. Hepatocyte suspensions were obained by passing digested livers through 0.125 mm gauze and washing cells in modified Eagles' medium (MEM, Life Technologies, Inc., Grand Island, N.Y.). […] After isolation, hepatocytes were resuspended in William's E medium (Life Technologies, Inc., Grand Island, N.Y.) supplemented with 26 mM sodium bicarbonate, 23 mM HEPES, 0.01 U/ml insulin, 2 mM L-glutamine, 10 nM dexamethasone, 5.5 mM glucose, 100 U/ml penicillin and 100 U/ml streptomycin and then 1.0×10^6 cells were plated on 35×10 mm […] tissue culture dishes (Becton Dickinson Labware, Lincoln Park, N.J.). The cells were maintained at 37° C. in a humidified atmosphere of 5% CO2 for 3 h. Plates were then washed with medium to remove dead cells, and medium containing 10% heat-inactivated FBS (55° C. for 30 min) was added (Atlanta Biologicals, Inc., Norcross, Ga.). Aliquots of 1.0×10^5 human (HuH-7) hepatoma cells were plated on 35×10 mm tissue culture dishes (Becton Dickinson Labware) and maintained at 37° C. in Dulbecco's MEM (Atlanta Biologicals, Inc.) supplemented with 10% FBS, 100 U/ml penicillin and 100 u/ml streptomycin for 3 h prior to incubation with bile acids.
# Incubation of cells with bile acids. […] The medium was gently removed at the indicated time points and scored for nonviable cells by trypan blue dye exclusion. […]
# Morphological evaluation of apoptosis. […] Fluorescence was visualized with a Zeiss standard fluorescence microscope (Carl Zeiss, Inc., Thornwood, N.Y.). […] Stained nuclei were scored by blind analysis and categorized according to the condensation and staining characteristics of chromatin. […] Three fields per dish of approximately 500 nuclei were counted; mean values are expressed as the percent of apoptotic nuclei.
# [1] = inducer TGF-β1, HuH-7, inhibition by UDCA
molecule,measurement,setting,value
"TGF-β1: transforming growth factor β1, nonmembrane damaging inducer of apoptosis",Peroxides Production (%) Inducer,"HuH-7 cells; 1 nM TGF-β1, 48 h, HuH-7",11.0 ± 2.9%
C=C1[C@@H](O)[C@@H]2O[C@]3(CC[C@H](/C=C/[C@@H](C)[C@@H]4CC(C)=C[C@@]5(O[C@H](C[C@@](C)(O)C(=O)O)CC[C@H]5O)O4)O3)CC[C@H]2O[C@@H]1[C@@H](O)C[C@H](C)[C@H]1O[C@@]2(CCCCO2)CC[C@H]1C [okadaic acid],apoptosis induced,"Saos-2 cells; 50 nM okadaic acid, 48 h",> 30%
"C[C@H](CCC(=O)O)[C@H]1CC[C@H]2[C@@H]3[C@@H](O)C[C@@H]4C[C@H](O)CC[C@]4(C)[C@H]3CC[C@]12C [UDCA, ursodeoxycholic acid]",cell viability,"primary rat hepatocytes; 50 μM DCA + 50 μM UDCA, 6 h",88.5±4.9%
same,Inhibition % Apoptosis,"primary rat hepatocytes; inducer DCA, hepatocytes, inhibition by UDCA",90.9 ± 4.6%
same,reduction of the apoptotic response,"Saos-2 cells; 50 nM okadaic acid + 100 μM UDCA, 48 h",> 80%
same,Inhibition % Apoptosis,"Saos-2 cells; inducer OA, Saos-2, inhibition by UDCA",81.8 ± 2.3%
same,Peroxides Production (%) Inducer + UDCA,"HuH-7 cells; 1 nM TGF-β1 48 h, 100 μM UDCA pretreatment 60 min",5.8 ± 2.9 %
same,inhibition at 100 µM,"HuH-7 cells; Homo sapiens, inducer TGF-β1, HuH-7, 100 μM UDCA, read-out: % Inhibition of peroxides production",47.3 ± 16%
same,Inhibition % Superoxide Anion,HuH-7 cells; [1],69.9 ± 15.6%
same,Inhibition % _Ψm,HuH-7 cells; [1],45.0 ± 21.7%
"C[C@H](CCC(=O)O)[C@H]1CC[C@H]2[C@@H]3CC[C@@H]4C[C@H](O)CC[C@]4(C)[C@H]3C[C@H](O)[C@]12C [DCA, deoxycholic acid]","percentage of apoptotic cells, increase over control","primary rat hepatocytes; 50 μM DCA, 2 h",8 fold
